The values below come from paper PMC7503308, “A Novel Urease Inhibitor of Ruminal Microbiota Screened through Molecular Docking” (International Journal of Molecular Sciences, 2020).

Assay [1] relates to ruminal microbial urease. Briefly: Kinetic characterization of urease inhibition (nonlinear Michaelis-Menten fitting). The format is biochemical, rumen bacteria of Chinese Holstein dairy cows. The method, then: Rumen fluid samples were collected from five Chinese Holstein dairy cows with permanent rumen fistula 3 h after feeding a total mixed ration in the morning. All the operations were conducted in accordance with the protocol approved by the Animal Care and Use Committee for Livestock of the Institute of Animal Sciences, Chinese Academy of Agricultural Sciences (Permit Number: IAS2019-14, Permit Date: 22-03-2019). All rumen fluid samples were filtered by a six layer sterilized medical gauze and mixed in a sterilized beaker before being evenly distributed into different 50 mL tubes and stored in liquid nitrogen. The deforested samples were centrifuged at 12,000× g for 10 min at 4 °C, then the supernatant was removed from the tube. The remaining sediments were resuspended in a HEPES buffer solution (pH 7.5, 50 mM) and then centrifuged at 12,000× g for 10 min at 4 °C. The supernatant was discarded and the remaining rumen bacteria were collected and stored at −80 °C for later urease extraction. All the sample handing processes were conducted on an ice bath. Before each urease inhibition assay, 2 g of rumen bacteria were taken from the fridge and resuspended in a HEPES buffer followed by lysis through a high-pressure cell press JG-1A (Ningbo Scientz Biotechnology Co., Ltd., Ningbo, China). The hollow cylindrical sample loading element was placed in −80 °C for 10 min before the high-pressure lysis at 22,000 psi. […] The kinetic of the compound was determined by varying the concentration of urea in the presence of different compound 6238-0047 concentrations of 0.25 and 0.5 mM in the assay mixture. […] Maximal initial velocities were determined from the initial linear portion of the absorbance up to 10 min after the addition of the enzyme. Kinetic parameters Km and Vmax were calculated by the nonlinear fitting of different substrate concentrations against the velocities of the reaction at each different concentrations of compound 6238-0047 using the GraphPad Prism software as mentioned before.

The test system of assay [2] is ruminal microbial urease. Briefly: Urease inhibition assay (Berthelot alkaline phenol-hypochlorite method). In kind it is biochemical, rumen bacteria of Chinese Holstein dairy cows. The method, then: Rumen fluid samples were collected from five Chinese Holstein dairy cows with permanent rumen fistula 3 h after feeding a total mixed ration in the morning. All the operations were conducted in accordance with the protocol approved by the Animal Care and Use Committee for Livestock of the Institute of Animal Sciences, Chinese Academy of Agricultural Sciences (Permit Number: IAS2019-14, Permit Date: 22-03-2019). All rumen fluid samples were filtered by a six layer sterilized medical gauze and mixed in a sterilized beaker before being evenly distributed into different 50 mL tubes and stored in liquid nitrogen. The deforested samples were centrifuged at 12,000× g for 10 min at 4 °C, then the supernatant was removed from the tube. The remaining sediments were resuspended in a HEPES buffer solution (pH 7.5, 50 mM) and then centrifuged at 12,000× g for 10 min at 4 °C. The supernatant was discarded and the remaining rumen bacteria were collected and stored at −80 °C for later urease extraction. All the sample handing processes were conducted on an ice bath. […]
In vitro urease inhibition screening assays were conducted to further narrow the virtual screened compounds for further IC50 determination and kinetic characterization. […] The ammonia that was produced was measured using 50 μL of a phenol reagent containing 10.0 g/L phenol and 50 mg/L of sodium nitroprusside, and 50 μL of alkali reagent containing 5 g/L sodium hydroxide and 8.4 mL/L of sodium hypochlorite solution, at 37 °C for 30 min. The absorbance of each well was measured at 625 nm by a micro plate spectrophotometer (Thermo Scientific Varioskan Flash G-282, Thermo Scientific, Waltham, MA, USA). The endogenous nitrogen (blank) was measured by adding a 70 μL HEPES buffer (pH 7.5, 50 mM) containing no urea and 20 μL methanol solution in the first 30 min of the reaction mixture. The 100% initial activity was determined by adding a 15 μL methanol solution in the first 30 min of the reaction mixture. […]

Usually Vmax stands for the top rate of the reaction or transport when substrate is in excess. In general, IC50 refers to the point on the concentration scale where inhibition reaches its midpoint. Consider `COc1ccc(-c2ccc(CCC(=O)O)n2NC(N)=O)cc1` [6238-0047, 3-[1-[(aminocarbonyl)amino]-5-(4-methoxyphenyl)-1H-pyrrol-2-yl] propanoic acid], for which the Vmax with ruminal microbial urease [1] (0.25 mM of compound) was determined as 12.58 µM/min; in the assay with ruminal microbial urease [1] (0.5 mM of compound), 9.67 µM/min. In addition, the Inhibition mode entry with ruminal microbial urease [1] (from change of Km, Vmax and Vmax/Km) is given as “mixed type inhibitor”. For the same compound, in the assay with ruminal microbial urease [2] (0.5 mM compound, compared with other candidate compounds), the “Percentage of inhibition against ruminal microbial urease” value was “superior ruminal microbial urease inhibition capacity”. The compound also gave an IC50 with ruminal microbial urease [2] (ruminal microbial urease, 37 °C, 30 min, pH 7.5) of 65.9 µM.
